target: T1, IRAK4 (Homo sapiens, UniProt Q9NWZ3); experiment: Assay for inhibitory effect of compound on IRAK4 kinase activity (KinEASE-STK S1 HTRF kit); type: biochemical; conditions: not given
T1 sequence (Q9NWZ3 1-460): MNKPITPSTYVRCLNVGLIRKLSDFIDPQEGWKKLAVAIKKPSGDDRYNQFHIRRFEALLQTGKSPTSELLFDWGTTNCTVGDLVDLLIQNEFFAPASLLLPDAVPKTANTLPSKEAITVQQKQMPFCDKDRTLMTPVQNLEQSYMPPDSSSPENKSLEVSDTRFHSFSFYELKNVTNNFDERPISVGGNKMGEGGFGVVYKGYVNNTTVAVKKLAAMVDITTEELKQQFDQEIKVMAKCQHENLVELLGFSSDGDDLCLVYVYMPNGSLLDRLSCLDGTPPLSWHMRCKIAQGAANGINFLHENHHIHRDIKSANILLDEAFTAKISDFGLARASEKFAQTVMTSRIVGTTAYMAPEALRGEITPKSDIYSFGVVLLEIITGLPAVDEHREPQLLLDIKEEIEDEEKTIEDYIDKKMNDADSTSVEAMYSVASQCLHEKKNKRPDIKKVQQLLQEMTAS
In short: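 HTRF assay: 8 nM IRAK4 preincubated 15 minutes at rt with compound (final 5,000–0.0254 nM, 3-fold dilutions), then 400 nM biotinylated STK1 substrate and 80 µM ATP, 90 minutes at 37°C. Eu-cryptate anti-phospho-Ser/Thr antibody and streptavidin-XL665 detection, 665/620 ratio; IC50 from nonlinear fit of inhibition.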

Row | Structure (SMILES) | IC50 [nM]
1 | NS(=O)(=O)c1nn(C2CCC2)cc1NC(=O)c1ccn2ncc(-c3ccn[nH]3)c2n1 [Compound A278, N-(1-cyclobutyl-3-sulfonamide-1H-pyrazol-4-yl)-3-(1H-pyrazol-5-yl)pyrazolo[1,5-a]pyrimidine-5-carboxamide] | < 100

same assay, conditions: kinase 8 nM, ATP 80 µM, 37°C 90 minutes; read-out: IRAK4 HTRF IC50

Row | Structure (SMILES) | IC50 [nM]
2 | O=C(Nc1cn(C2CCCCC2)nc1C(=O)NC1CC1)c1cccc(-c2ccn[nH]2)n1 [Compound A255, N-(1-Cyclohexyl-3-(cyclopropylcarbamoyl)-1H-pyrazol-4-yl)-6-(1H-pyrazol-5-yl)picolinamide] | 100 to 1000
3 | O=C(Nc1cn(C2CCNCC2)nc1C(=O)NC1CC1)c1cccc(-c2ccn[nH]2)n1 [Compound A256, N-(3-(Cyclopropylcarbamoyl)-1-(piperidin-4-yl)-1H-pyrazol-4-yl)-6-(1H-pyrazol-5-yl)picolinamide] | < 100
4 | O=C(Nc1cn(-c2cccnc2)nc1C(=O)NC1CC1)c1cccc(-c2ccn[nH]2)n1 [Compound A257, N-(3-(Cyclopropylcarbamoyl)-1-(pyridin-3-yl)-1H-pyrazol-4-yl)-6-(1H-pyrazol-5-yl)picolinamide] | < 100
5 | NC(=O)c1nn(C23CC(C2)C3)cc1NC(=O)c1cccc(C(F)(F)F)n1 [Compound A258] | 100 to 1000
6 | CC(C)(O)c1nn(C2CCCCC2)cc1NC(=O)c1ccc2cc(C#N)cnn12 [Compound A259, 3-cyano-N-(1-cyclohexyl-3-(2-hydroxypropan-2-yl)-1H-pyrazol-4-yl)pyrrolo[1,2-b]pyridazine-7-carboxamide] | 100 to 1000
7 | NS(=O)(=O)c1nn(C2CCCCC2)cc1NC(=O)c1cccc(-c2ccn[nH]2)n1 [Compound A260, N-(1-Cyclohexyl-3-sulfamoyl-1H-pyrazol-4-yl)-6-(1H-pyrazol-5-yl)picolinamide] | < 100
8 | NS(=O)(=O)c1nn(-c2ccccc2)cc1NC(=O)c1cccc(-n2ccnc2)n1 [Compound A261, 6-(1H-Imidazol-1-yl)-N-(1-phenyl-3-sulfamoyl-1H-pyrazol-4-yl)picolinamide] | < 100
9 | COc1nn(-c2ccccc2)cc1NC(=O)c1cccc(C(=O)c2cn[nH]c2)n1 [Compound A262, N-(3-methoxy-1-phenyl-1H-pyrazol-4-yl)-6-(1H-pyrazole-4-carbonyl)picolinamide] | < 100
10 | COc1nn(C2CCCCC2)cc1NC(=O)c1cccc(-c2ccn[nH]2)n1 [Compound A263, N-(1-Cyclohexyl-3-methoxy-1H-pyrazol-4-yl)-6-(1H-pyrazol-5-yl)picolinamide] | 100 to 1000
11 | CC(F)(F)c1cccc(C(=O)Nc2cn(-c3ccccc3)nc2C(N)=O)n1 [Compound A264] | 100 to 1000
12 | CC(F)(F)c1cccc(C(=O)Nc2cn(-c3ccccc3)nc2C(=O)NC2CC2)n1 [Compound A265, N-(3-(Cyclopropylcarbamoyl)-1-phenyl-1H-pyrazol-4-yl)-6-(1,1-difluoroethyl)picolinamide] | 100 to 1000
13 | N#Cc1cnn2c(C(=O)Nc3cn(C4CCCCC4)nc3C(F)F)ccc2c1 [Compound A266, 3-cyano-N-(1-cyclohexyl-3-(difluoromethyl)-1H-pyrazol-4-yl)pyrrolo[1,2-b]pyridazine-7-carboxamide] | 100 to 1000
14 | O=C(Nc1cn(C2CCC2)nc1C(F)F)c1ccn2ncc(-c3ccn[nH]3)c2n1 [Compound A279, N-(1-cyclobutyl-3-(difluoromethyl)-1H-pyrazol-4-yl)-3-(1H-pyrazol-5-yl)pyrazolo[1,5-a]pyrimidine-5-carboxamide] | 100 to 1000
15 | NC(=O)c1nn(C2CCC2)cc1NC(=O)c1ccn2ncc(-c3ccn[nH]3)c2n1 [Compound A280, N-(3-carbamoyl-1-cyclobutyl-1H-pyrazol-4-yl)-3-(1H-pyrazol-5-yl)pyrazolo[1,5-a]pyrimidine-5-carboxamide] | 100 to 1000
16 | CC(C)(O)c1nn(C2CCC2)cc1NC(=O)c1ccn2ncc(-c3ccn[nH]3)c2n1 [Compound A281, N-(1-cyclobutyl-3-(2-hydroxypropan-2-yl)-1H-pyrazol-4-yl)-3-(1H-pyrazol-5-yl)pyrazolo[1,5-a]pyrimidine-5-carboxamide] | 100 to 1000
